Source: PMC6614837 (Nucleic Acids Research, 2019)
Several values for one entry are separate records, joined by “and”; a condition that tells them apart may be missing. Equal values may be shown once. Where a name gives a salt, the structure may show the parent alone.

Legend:
[1] = molecular target: T1, RNase P holoenzyme from Thermotoga maritima (Thermotoga maritima, UniProt Q9X1H4); assay: Verification of deconvoluted hits by fluorescence- and gel-based assays with Mh substrate; assay type: biochemical; conditions: 250 μM (fluorescence) and 500 μM (gel)
T1 construct: made in house
T1 sequence (Q9X1H4 1-117): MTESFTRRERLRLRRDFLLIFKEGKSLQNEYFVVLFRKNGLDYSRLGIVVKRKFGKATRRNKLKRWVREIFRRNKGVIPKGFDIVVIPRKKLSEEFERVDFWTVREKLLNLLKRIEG
Experimental: For gel-based activity assays, reactions were prepared as described in the previous section (fluorescence activity assay), incubated for 1–15 min at 37–50°C, then loaded onto a denaturing 7 M urea–20% acrylamide gel in the case of the Mh substrate or 19% acrylamide (40% acrylamide/bisacrylamide 38.5:1.5) for the bipartite pre-tRNA substrate. The activity conditions for the gel reported in Figure 3A, to monitor the cleavage of the holoenzyme and P RNA, were under 100 mM AmOAc and 10 mM MgCl2. The gels (13 × 16 × 0.15 cm) were electrophoresed at 20 V/cm for 2–3 h. UV shadowing or ethidium bromide staining was used to visualize RNA cleavage. Detection of minihelix fluorescence was achieved without staining using a UV lamp with excitation at ∼254 nm.
Screening was performed with the Spectrum Collection (MicroSource Discovery Systems, Inc), which comprises 2560 compounds, each dissolved in DMSO at 10 mM. For our initial screening, compounds from this collection were tested in cocktails; eight compounds were tested per well in 384-well format. The final concentration of each compound in the cocktail was 1.25 mM. For the activity assay, reactions were set up in a total volume of 20 μl (13.5 μl of activity buffer, 1.5 μl of fluorescent Mh at 3.6 μM, 3 μl of DMSO or cocktail). […] The control wells included for each experiment series were: (i) reaction with twice (3 μl) the fluorescent Mh amount to avoid a signal saturation for the rest of the wells, (ii) two reactions with 10% DMSO (no cocktail), (iii) Mh substrate only, with no ribozyme, (iv) reaction with 100 mM CaCl2, which it is used as a negative control as it competes with MgCl2 (EDTA was not used because metal ions are essential to maintaining the structure of P RNA ([41])). The reaction was initiated by adding 2 μl of holoenzyme at 333 nM and monitored as described above. Each round of experiments contained twenty different cocktails corresponding to one row of a 384-well plate (Supplementary Figures S6 and S24). […] At this stage, each compound from the inhibitory cocktails was tested at a final concentration of 1 mM (2 μl of the 10 mM stock). We performed a gel-based assay for the nine selected compounds to qualitatively verify the results obtained by the fluorescence assay (Supplementary Figure S9). After deconvolution, each of the final four potential positive compounds was purchased individually from a different provider (Sigma-Aldrich) and tested inhibition using the T. maritima Mh, pre-tRNA and bipartite pre-tRNA substrates (Figure 2 and Supplementary Figures S10–S12 and S14).
Supplementary Figure 9. Consistent results between fluorescence- and gel-based assays. (A) Plots of fluorescent kinetic assays performed in standard conditions in the presence of the different hits at a concentration of 250 µM (four-fold lower concentration as compared to Supplementary Figure 8). (B) End-point assays of the RNase P holoenzyme from Thermotoga maritima in the presence of the non-fluorescent minihelix substrate and the different inhibitor hits at 500 µM, as assessed by 20% urea-PAGE.
The holoenzyme at 0.5 µM was preincubated at 37° C for 30 minutes in the presence of the individual compounds, centrifuged for 15 minutes at 12000g and incubated with the Mh substrate at 18 µM at 37 °C for 15 minutes. At this stage, iodoquinol was the only compound whose behavior was not corroborated in both assays (panels A and B). […]
experiments reported in this Figure. […] Alexidine […]

[2] = molecular target: T1, RNase P holoenzyme from Thermotoga maritima; assay: Real-time fluorescence-based (FRET) RNase P activity assay with minihelix (Mh) substrate; assay type: biochemical; conditions: 100 mM MgCl2
Experimental: The reconstitution of the RNase P holoenzyme was performed as described in ([40],[19]). This protocol produces a homogeneous and functional ribozyme that can be crystallized by mixing P RNA and P protein in a 1:1.1 molar ratio in 1× TH buffer (33 mM Tris–HCl, 66 mM HEPES, pH 7.4) and 400 mM ammonium acetate (AmOAc). The mixture was heated to 95°C for 2 min in a water bath, then chilled on ice for 2 min, after which MgCl2 was added to a final concentration of 100 mM. […] This higher concentration was used in all experiments described herein. The holoenzyme was further incubated at 50°C for 10 min and 37°C for 40 min. The final concentration of holoenzyme was 333 nM (35.6 μg/ml of P RNA and 4.7 μg/ml of P protein).
The minihelix (Mh) substrate (Figure 1A) was adopted from a previously characterized RNase P substrate, pMini3bpUG ([32],[33]) and coupled to either Black Hole Quencher 1 (BHQ1) or Black Hole Quencher 2 (BHQ2) at the 5′-end and Alexa Fluor 488 at the 3′-end. This probe was purchased either from Sigma-Aldrich or Integrated DNA Technologies (IDT). A requested scale of […] yielded between 6.3 and 20 nmol (57.5 to 181 μg, enough for 1300–4000 reactions depending on the experimental substrate concentration). Before use, the minihelix was diluted from a 100 μM stock (dissolved in water) to 3.6 μM in activity buffer H (33 mM Tris–HCl, 66 mM HEPES, pH 7.4, 400 mM AmOAc and 100 mM MgCl2).
Reactions were performed in a total volume of 20 μl. Pipetting was done by hand using multichannel pipettes. First, an 18 μl reaction mixture containing 16.5 μl of activity buffer (H for Mh or L supplemented with 10% PEG 200 for bipartite pre-tRNA) and 270 nM (Mh) or 135 nM (bipartite pre-tRNA) (1.5 or 0.7 μl of the 3.6 μM stock) of the fluorescent substrate probe was pre-incubated on ice for at least 5 m in a black polystyrene 384-well microtiter microplate with a flat transparent bottom (Corning ref 3540). The holoenzyme was then added at a final concentration of 33 nM (2 μl of a 333 nM stock) in 1× TH buffer and mixed. Kinetic activity was monitored in a Synergy MX Multimode Detector (BioTek) at 37°C with rapid agitation. At least 20 readings were taken per well every 15 s. The probe was excited at 485 nm, and its emission was monitored at 535 nm with an integration time of 1 s. From the plots of relative fluorescent units (RFU) versus time, linear regression was used to determine the slopes in the linear portion of the curves, using at least 12 data points to obtain initial velocities. Non-linear fitting to obtain the Michaelis–Menten parameters was performed using GraphPad Prism® 6.01 software.
Supplementary Figure 3. FRET assays of RNase P with the fluorescent substrate are reproducible. (A) Representative plots of kinetic assays performed in a single run. The standard assay (SA), (+), was performed at 37° C in a total volume of 20 µL and contained RNase P holoenzyme at 33 nM, substrate minihelix (Mh) at 270 nM, 10% DMSO and activity buffer (AB).
The negative control assay (-) contained 100 mM CaCl2 in place of MgCl2. Ten to twelve wells were monitored simultaneously in a typical assay. (B) Zoomed view of the linear region of the kinetic assays shown in panel A. Fluorescence readings were performed every 15-20 seconds.
Linear regression calculations were done using the GraphPad Prism 7 software. (C) The coefficient Z’-factor (1) was used as an indicator of reproducibility and was calculated based on the relative fluorescence units (RFU) in the plateau phase (taken at 20 minutes). The Z’-factor has a […]
presented in this work were either measured in triplicate or confirmed in subsequent assays. (D) […]
assay is robust. The IC50 values reported in Figures 1C and 2 were calculated according to this kinetic parameter. There is a negative drift in fluorescence in the case of the negative control.
However, it should be noted that the mean value of it (-279) is much smaller than the signal of the […]
positive control (3397). […]

[3] = tested on: 3'-biotinylated minihelix (Mh; pMini3bpUG) (RNA, hairpin) GAUCUGAAUGCGGAAACGCGCCAC; assay: biolayer interferometry; conditions: Mg2+ 10 mM, NH4+ 100 mM (ammonium acetate); 20 mM HEPES pH 7.4, DMSO, 30°C; compound 15.6-500 µM
P protein = molecular target: T2, P protein (Thermotoga maritima, UniProt Q9X1H4); assay: Binding hindrance of the 5′ RNA leader to the P protein (BLI); set-up: species or system T. maritima; conditions: compound 100 μM, 5′ RNA leader 5 μM
T2 construct: GST (cleaved yes); made in house; host or cells: E. coli BL21(DE3)pLysS
T2 sequence (Q9X1H4 1-117): T1 sequence (Q9X1H4 1-117)
Experimental: A 5′ RNA leader sequence with 10-bases 5′-GGAAAAAGAU-3′ was purchased from IDT and used at a concentration of 5 μM. This sequence is the same used to obtain the crystal structure of the RNase P holoenzyme ([19]). The His-tagged P protein was immobilized on Ni-NTA biosensors at 0.05 mg/ml (3.4 μM). […] The steps performed on the assay and their periods were: P protein immobilization (400 s), wash (100 s), baseline […] (1000 rpm), compound association (800 s), compound dissociation (200 s) (500 rpm), baseline (100 s), 5′ leader association (200 s), 5′ leader dissociation (200 s) (1000 rpm). The assay was performed at 30°C. The compounds were used at 100 μM throughout. All assay steps were performed in 20 mM HEPES pH 7.4, 100 mM ammonium acetate, 10 mM MgCl2, 5% DMSO.
5 ′ RNA leader. (A) Experimental design of 5′ RNA leader binding hindrance experiments. Figures B-F are based on the analysis region depicted in panel A, where association and dissociation of the 5′ RNA leader to the P protein (TmP) is measured over time. P protein at 3.5 µM was immobilized on Ni-NTA biosensors for 300 s, while compounds were assayed at 100 µM and the […]
binding, in contrast with hematein (E) and purpurin (F).
(1 picture or pasted object on this page, not shown here)

minihelix (Mh) = assay: Biolayer interferometry binding to biotinylated minihelix substrate; conditions: BLI
Experimental: 3′-Biotinylated minihelix was purchased from Integrated DNA Technologies (IDT) (24-mer RNA sequence, 5′-[…]-3′-Biotin). The biotinylated minihelix was immobilized on Super Streptavidin (SSA) biosensors at a concentration of 10 μM. […] For the titration experiments, 10 μM of 3′-biotinylated minihelix was immobilized for 300 s on Super Streptavidin (SSA) biosensors, followed by a wash step of 100 s and association and dissociation steps of 200 s in the presence of 6 different concentrations of compound ranging from 500 to 15.6 μM. SSA biosensors with no minihelix were used to measure non-specific binding of compounds. All other parameters (buffer, instrument control, analysis) are as described above.
Supplementary Figure 16. Binding assays monitor the interaction of compounds with the minihelix (Mh). Gentian violet and methylene blue bind in a dose-dependent relationship to the artificial minihelix substrate. […]
interaction between the minihelix and (A) gentian violet (KD=8 µM ) and (B) methylene blue A 3′-biotinylated substrate minihelix at 10 µ M was immobilized on super streptavidin (SSA) biosensors for 300 s.
Supplementary Figure 17. pre-tRNA displaces bound purpurin in a dose-response […]
indicating a true competition between purpurin and pre-tRNA binding sites. […]

For N=C1C=CC(=C(c2ccc(N)cc2)c2ccc(N)cc2)C=C1 [Pararoseaniline], the “Inhibition of RNase P in fluorescence and gel verification” value [1] was “did not inhibit RNase P”.

In the case of CCCCC(CC)CNC(=N)NC(=N)NCCCCCCNC(=N)NC(=N)NCC(CC)CCCC (stereo not drawn) [alexidine hydrochloride], the “Inhibition of RNase P in fluorescence and gel verification” value [1] is reported as “seems to precipitate the holoenzyme”.

With Cc1cc(O)c2c(c1)C(=O)c1cc(O)cc(O)c1C2=O [emodin] the “Inhibition of RNase P in fluorescence and gel verification” value [1] was “did not inhibit RNase P”.

For Oc1c(I)cc(I)c2cccnc12 [iodoquinol, reference compound], the “Inhibition of RNase P in fluorescence and gel verification” value [1] was “false positive”.

With NC[C@H]1O[C@H](O[C@H]2[C@H](O)[C@@H](O[C@H]3O[C@H](CO)[C@@H](O)[C@H](N)[C@H]3O)[C@H](N)C[C@@H]2N)[C@H](N)[C@@H](O)[C@@H]1O [kanamycin B, reference compound] the “Inhibition of RNase P (Mh fluorescence assay)” value [2] was “did not detect inhibition”.

CN(C)c1ccc2nc3ccc(=[N+](C)C)cc-3sc2c1 [methylene blue, reference compound] was tested, and the KD [3] was 35 µM, the IC50 ([2]; fluorescent Mh substrate 270 nM, holoenzyme 33 nM, 10% DMSO, 37°C, 400 mM AmOAc) was 110 µM and 109 µM and the “Hindrance of 5′ RNA leader binding to the P protein” value (P protein) was “did not interfere with RNA leader”. The Kd (minihelix (Mh); 3′-biotinylated minihelix 10 μM on SSA biosensors) was 35 µM and the “Binding to the minihelix substrate” value (minihelix (Mh); initial screening at 1 mM and titration) was “binding signal”.

In the case of NC[C@@H]1O[C@H](O[C@H]2[C@@H](O)[C@H](O[C@@H]3[C@@H](O)[C@H](N)C[C@H](N)[C@H]3O[C@H]3O[C@H](CN)[C@@H](O)[C@H](O)[C@H]3N)O[C@@H]2CO)[C@H](N)[C@@H](O)[C@@H]1O [neomycin B, reference compound], the “Inhibition of RNase P (Mh fluorescence assay)” value [2] is reported as “did not detect inhibition”.

With O=C(N/N=C/c1ccc([N+](=O)[O-])o1)c1cc([N+](=O)[O-])cc([N+](=O)[O-])c1O [nifursol, reference compound] the “Inhibition of RNase P in fluorescence and gel verification” value [1] was “weak inhibitor”.
